The values that follow come from paper PMC5365645, “Preclinical Pharmacokinetics and Pharmacodynamic Target of SCY-078, a First-in-Class Orally Active Antifungal Glucan Synthesis Inhibitor, in Murine Models of Disseminated Candidiasis” (Antimicrobial Agents and Chemotherapy, 2017).

SMILES strings stand for the structures. Where only a bound is given, the exact number is not on record here.

A short description of data set [1]: in vivo. Also noted: species or system mice, rats, and dogs. On the procedure: The pharmacokinetics and bioavailability of SCY-078 were evaluated in uninfected mouse, rat, and dog after p.o. and i.v. administration. The in vivo phases of the PK studies were performed at either […] (Waltham, MA) or MPI Research (Mattawan, MI) after an Institutional Animal Care and Use Committee (IACUC) review. […] and MPI Research are Association for Assessment and Accreditation of Laboratory Animal Care International (AAALAC)-approved facilities. […] The peak concentration (Cmax), the time to maximum concentration (Tmax), the half-life, and the AUC were determined from composite mean plasma concentration-time data for rodents and individual plasma concentration-time data for dogs. All doses and plasma concentrations of SCY-078 are presented as free base. […] Male and female Wistar Han rats (n = 3/sex/group/time point) weighing 0.329 to 0.398 kg (males) or 0.187 to 0.244 kg (females) received a single 5-mg/kg dose of SCY-078 as an i.v. injection in the lateral tail administered over 5 min or an oral dose of 20 mg/kg as described above. Blood specimens were collected from four animals/time point/group using a sparse sampling strategy via the sublingual vein at time intervals to 72 h postdosing and processed as described above. Treatment naive male and female beagle dogs (n = 3/sex/group/time point) weighing 8 to 12 kg (males) or 6 to 10 kg (females) were given a single 5-mg/kg dose of SCY-078 as an i.v. injection over 5 min or an oral dose of 20 mg/kg as described above. Blood specimens were collected from the jugular vein at various time intervals to 72 h postdosing and processed as described above.

Another data set has as its system C. albicans CLY724. Description: Single delayed-dose treatment model of disseminated candidiasis. The note with it: single dose 16 h after infection, tissue burden 96 h after treatment, regression analysis. Format: in vivo, mice.
Data set [2] can be described thus: Solubility in simulated gastric and intestinal fluids. Format: physicochemical. The note with it: thermodynamic from solid, citrate salt form.
Experimental: The solubility of SCY-078 was measured in simulated gastric fluid (SGF), fasted-state simulated intestinal fluid (FaSSIF), and fed-state intestinal fluid (FeSSIF) by Crystal Pharmatech (North Brunswick, NJ). In general, approximately 15 mg of solid was weighed into a 4-ml vial, 3.0 ml of medium was added, and the suspensions were stirred on a rolling incubator (25 rpm) at an ambient room temperature for 24 h. After incubation, 0.5 ml of suspension was centrifuged and filtered (0.45-μm pore size), and the concentration of SCY-078 was determined in the supernatant by high-pressure liquid chromatography (HPLC) with UV detection. The quantity of SCY-078 and the volume of medium was adjusted as required to determine the solubility in each medium.
Data set [3] in a line: in vivo. The note with it: female, CD-1, mouse; for AUC(0-inf) / AUC(0-t) / half-life: kidney; for AUC(0-inf) / AUC(0-t) / half-life / Kp: po; for Kp at 12 h / Kp: kidney/plasma; for Kp at 12 h: oral.
Experimental: Female CD-1 mice (n = 5/sex/time point/group) weighing approximately 25 g were administered SCY-078 by oral gavage either once daily or as multiple twice-per-day (Q12h) treatments, with individual doses ranging between 3 and 100 mg/kg (6 to 150 mg/kg/day). Mice also received a single 1-mg/ml i.v. dose of SCY-078. Plasma specimens were collected prior to dosing and at 0.25, 0.5, 1, 2, 4, 6, 9, 12, 18, 24, 36, 48, and 60 h after the single i.v. dose and at the same time points from 1 h postdose onward following oral dose 13 on day 7 of treatment. On the first day of oral treatment, plasma specimens were collected immediately before each of the two doses and 1, 2, 4, 6, 9, and 12 h postdosing. […] Kidney tissues were collected at 2, 4, 12, 24, 36, 48, and 60 h after oral dose 13 on treatment day 7, blotted dry, and stored at approximately −80°C until analysis.
On the day of analysis, either treatment-naive (drug-free) kidney tissue or freshly thawed tissue samples from PK studies were weighed and homogenized in 3 volumes of phosphate-buffered saline. The density of kidney tissue used for the determination of volume was assumed to be 1.0 g/ml.
Whole-kidney tissue samples were homogenized in parallel by means of a Precellys 24 bead mill homogenizer (Bertin Technologies, Montigny le Bretonneux, France) using 2-ml Precellys tubes containing 1.4-mm-diameter ceramic beads (CK14) and a single 15-s cycle of 5,500 rpm. Parallel bead homogenization increased throughput and avoided potential cross-contamination of samples since each sample was wholly contained and homogenized within its own sealed vial with no direct contact between the homogenizing instrument or other samples.
Mouse plasma (50 μl) or kidney tissue homogenate (50 μl) was treated with 5 volumes of acetonitrile containing 50 ng of deuterium (d9)-labeled SCY-078 internal standard/ml to precipitate proteins. Treated samples were mixed on a 96-well plate shaker for ∼30 min and then centrifuged at approximately 4,000 × g and 15°C for 15 min. Supernatants were transferred to fresh 96-well plates for analysis by LC-MS/MS.
Data set [4] in a line: Plasma protein binding by equilibrium dialysis, across species. Format: in vitro ADME, and human. The note with it: DBA (mouse), Sprague-Dawley (rat), beagle (dog), human, pH 7.4, range across species, 0.1 to 10 μM. The method, then: In vitro reversible protein binding and blood/plasma partition ratio were determined for SCY-078 in mouse, rat, dog, and human plasma and whole blood (Table 3). […] The unbound fraction of SCY-078 in plasma determined by means of equilibrium dialysis was 0.2 to 0.5% (99.8 to 99.5% bound) and appeared to be independent of concentration over the range studied (0.1 to 10 μM). Within the limitations of the assay method, binding perhaps appeared modestly higher in rodent plasma than in dog or human plasma; however, the study was not powered to identify differences between species.
Protein binding of [^3H]SCY-078 in mouse, rat, dog, and human plasma was determined by means of equilibrium dialysis and liquid scintillation counting. Tritium-labeled SCY-078 in ethanol was added to unlabeled SCY-078 in methanol to prepare stock solutions at 10, 100, and 1,000 μM SCY-078 with constant activity.
Protein binding was determined against isotonic phosphate-buffered saline (pH 7.4) at 37°C for 24 h. […] After incubation, aliquots (100 μl) of plasma and phosphate buffer were counted for radioactivity (Beckman LS6500 liquid scintillation counter), and unbound fractions of SCY-078 were estimated based on the following calculation: unbound fraction = radioactivity (dpm/0.1 ml) in buffer/total radioactivity (dpm/0.1 ml) in plasma.

A short description of data set [5]: In vitro metabolic stability in hepatic microsomes, dog or human summary. Format: in vitro ADME. The note with it: both sexes, liver microsomes. On the procedure:
Scaling intrinsic clearance to hepatic clearance based on liver blood flow indicates low clearance in rodents and moderate clearance in dogs and humans ([15]). These solubility, permeability, and metabolic stability data are consistent with SCY-078 being well absorbed from the intestine and able to achieve clinically relevant exposures following oral delivery.
The metabolic stability of SCY-078 was evaluated with male and female mouse, male rat, male and female dog, and mixed-gender human liver microsomes (XenoTech, Lenexa, KS). SCY-078 (1 μM) was incubated with pooled liver microsomes (0.5 mg protein/ml) for 0, 5, 10, 20, and 30 min at 37°C in the presence of NADPH. Aliquots were taken at each sampling time point and extracted with 5 volumes of ice-cold acetonitrile containing the internal standard (d9-SCY-078, 125 ng/ml). Supernatants from the incubation mixtures were analyzed for the parent compound by LC-MS/MS according to the conditions described below. The metabolic competency of microsomal preparations was established using the control compounds 7-ethoxycoumarin, propranolol, and verapamil. The in vitro intrinsic clearance (CLint), the CLint scaled to the in vivo intrinsic clearance (CL′int), and the half-life were determined for SCY-078 incubated with microsomes from each species.

Where [6] appears, read: female (mouse), both (rat, dog), CD-1 (mouse), Wistar Han (rat), beagle (dog), dog, po.

On to `CC(C)[C@@H](C)[C@@]1(C)CC[C@]2(C)[C@H]3CC[C@@H]4[C@@]5(COC[C@@]4(C)[C@@H](OC[C@](C)(N)C(C)(C)C)[C@H](n4ncnc4-c4ccncc4)C5)C3=CC[C@@]2(C)[C@@H]1C(=O)O` [SCY-078, (1S,4aR,6aS,7R,8R,10aR,10bR,12aR,14R,15R)-15-[[(2R)-2-amino-2,3,3-trimethylbutyl]oxy]-8-[(1R)-1,2-dimethylpropyl]-14-[5-(4-pyridinyl)-1H-1,2,4-triazol-1-yl]-1,6,6a,7,8,9,10,10a,10b,11,12,12a-dodecahydro-1,6a,8,10a-tetramethyl-4H-1,4a-propano-2H-phenanthro[1,2-c]pyran-7-carboxylic acid], for which the Cmax in “in vivo [1]” (CD-1 (mouse), Wistar Han (rat), beagle (dog), dog, po) is about 1000 ng/mL. This compound yielded a half-life in the data set “in vivo [1]” (both sexes, CD-1, Wistar Han, mouse, rat, po) of 7.8 to 9.1 h. Further, in the data set “in vivo [1]” (female (mouse), both (rat), CD-1 (mouse), Wistar Han (rat), iv), the half-life lay in the range of 5.5 to 8.7 h. In the data set “in vivo [1]” (female (mouse), both (rat, dog), CD-1 (mouse), Wistar Han (rat), beagle (dog), dog, iv), the Vd lay within 4.7 to 5.3 L/kg. In the data set “in vivo [1]” (setting [6]), the “Dose normalized AUC0–12 across species” value is 0.5-0.8 μg/ml·h/mg/kg dose and the Tmax lay within 4 to 6 h. Also, the “Dose achieving stasis endpoint” value in the data set with C. albicans CLY724 came out at 9.93 mg/kg. Moreover, the solubility at 24 h in data set [2] (fasted-state simulated intestinal fluid (FaSSIF), FaSSIF) was over 4.2 mg/mL. Besides, in data set [2] (fed-state simulated intestinal fluid (FeSSIF), FeSSIF), the solubility at 24 h was over 20 mg/mL. In data set [2] (simulated gastric fluid (SGF), simulated gastric fluid, SGF), the solubility at 24 h was over 20 mg/mL. In “in vivo [3]” (6.25 mg/kg), this compound showed an AUC(0-inf) of 198 µg·h/mL, an AUC(0-t) of 118 µg·h/mL, a half-life of 9.2 h and a concentration ratio (Kp) at 12 h of 19. Further, the Kp in “in vivo [3]” (6.25 mg/kg) worked out at 21.5. Besides, in “in vivo [3]” (12 mg/kg), the AUC(0-inf) was 700 µg·h/mL, the AUC(0-t) was 346 µg·h/mL, the half-life was 8.9 h and the partition ratio (Kp) at 12 h turned out to be 25.7. Moreover, in “in vivo [3]” (12 mg/kg), the Kp came to 23.1. The same compound had a fraction unbound at 24 h in data set [4] of 0.002 to 0.005. The fraction remaining at 0.5 h, 1 µM in data set [5] (dog or human microsomes, read-out: % remaining after 30 min) was about 50%. The half-life at 1 μM in data set [5] (dog or human microsomes, read-out: Half-life (t0.5)) is at least 0.483 h. The microsomal CLint at 1 μM in data set [5] (larger species (dog, human), read-out: Intrinsic clearance) is under 48 µL/min/mg.
